Experiments:
wheat, winter = test: Test C preemergence; format: in vivo, Triticum aestivum; conditions: for Wheat plant response rating: preemergence, scale 0 (no effect) to 100 (complete control); for Plant response rating, Wheat: Preemergence, scale 0 to 100, 0 no effect, 100 complete control
Procedure, shortened: (§1)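 Preemergence: seeds sown in a loam soil–sand blend and sprayed with test chemical in a non-phytotoxic solvent mixture containing surfactant. Postemergence: plants at 2 to 18 cm (1- to 4-leaf stage) in peat-based medium, treated with the same formulation. Greenhouse 13 to 15 days, then visual rating 0 (no effect) to 100 (complete control).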

ragweed = test: Test C preemergence; format: in vivo, Ambrosia elatior; conditions: for Ragweed plant response rating: preemergence, scale 0 (no effect) to 100 (complete control); for Plant response rating, Ragweed: Preemergence, scale 0 to 100, 0 no effect, 100 complete control
Procedure, shortened: as §1

soybean = test: Test E preemergence; format: in vivo, Glycine max; conditions: for Soybean plant response rating: scale 0 to 100 (0 no effect, 100 complete control); for Plant response rating, Soybean: scale 0 to 100, 0 no effect, 100 complete control
Procedure, shortened: (§2)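 Response was scored visually on a 0-100 scale (100 = complete control) versus controls after 14 to 21 days in the greenhouse. Test chemicals, formulated with surfactant in a non-phytotoxic solvent mixture, had been applied preemergence to seeds in silt loam soil or postemergence to 1- to 4-leaf plants in potting medium.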

velvetleaf = test: Test E preemergence; format: in vivo, Abutilon theophrasti; conditions: for Velvetleaf plant response rating: scale 0 to 100 (0 no effect, 100 complete control); for Plant response rating, Velvetleaf: scale 0 to 100, 0 no effect, 100 complete control
Procedure, shortened: as §2

large (Lg) crabgrass = test: Test E preemergence; format: in vivo, Digitaria sanguinalis; conditions: for Crabgrass, Large plant response rating: scale 0 to 100 (0 no effect, 100 complete control); for Plant response rating, Crabgrass, Large: scale 0 to 100, 0 no effect, 100 complete control
Procedure, shortened: as §2

johnsongrass = test: Test E preemergence; format: in vivo, Sorghum halepense; conditions: for Johnsongrass plant response rating: scale 0 to 100 (0 no effect, 100 complete control); for Plant response rating, Johnsongrass: scale 0 to 100, 0 no effect, 100 complete control
Procedure, shortened: as §2

[1] = tested on: waterhemp_RES1 (ALS & Triazine resistant common waterhemp); test: Test E postemergence; format: in vivo, Amaranthus rudis
Procedure, shortened: as §2

[2] = tested on: waterhemp_RES2 (ALS & HPPD resistant common waterhemp); test: Test E postemergence; format: in vivo, Amaranthus rudis
Procedure, shortened: as §2

waterhemp = test: Test E postemergence; format: in vivo, Amaranthus rudis
Procedure, shortened: as §2

fall panicum = test: Test E postemergence; format: in vivo, Panicum dichotomiflorum
Procedure, shortened: as §2

sandbur = test: Test E postemergence; format: in vivo, Cenchrus echinatus
Procedure, shortened: as §2

arrowleaf sida = test: Test E postemergence; format: in vivo, Sida rhombifolia
Procedure, shortened: as §2

[3] = Postemergence, 62 g ai/ha, scale 0 to 100
[4] = Postemergence, 125 g ai/ha, scale 0 to 100
[5] = Postemergence, 31 g ai/ha, scale 0 to 100
[6] = Postemergence, 250 g ai/ha, scale 0 to 100
[7] = postemergence, 16 g ai/ha, scale 0 to 100, 0 no effect, 100 complete control

SMILES: N#Cc1cccc(Oc2ncc(Cl)cn2)c1-n1cc(Cl)cn1 [Compound 72]
- Wheat plant response rating (wheat, winter; 62 g ai/ha): 0
- Wheat plant response rating (wheat, winter; 125 g ai/ha): 30
- Wheat plant response rating (wheat, winter; 250 g ai/ha): 35
- Plant response rating, Wheat (wheat, winter; 31 g ai/ha): 0
- Ragweed plant response rating (ragweed; 62 g ai/ha): 75
- Ragweed plant response rating (ragweed; 125 g ai/ha): 85
- Ragweed plant response rating (ragweed; 250 g ai/ha): 95
- Plant response rating, Ragweed (ragweed; 31 g ai/ha): 55
- Soybean plant response rating (soybean; 16 g ai/ha): 0
- Soybean plant response rating (soybean; 31 g ai/ha): 10
- Soybean plant response rating (soybean; 62 g ai/ha): 25
- Plant response rating, Soybean (soybean; 125 g ai/ha): 70
- Plant response rating, Soybean (soybean; 250 g ai/ha): 90
- Velvetleaf plant response rating (velvetleaf; 16 g ai/ha): 0
- Velvetleaf plant response rating (velvetleaf; 31 g ai/ha): 0
- Velvetleaf plant response rating (velvetleaf; 62 g ai/ha): 40
- Plant response rating, Velvetleaf (velvetleaf; 125 g ai/ha): 65
- Plant response rating, Velvetleaf (velvetleaf; 250 g ai/ha): 100
- Crabgrass, Large plant response rating (large (Lg) crabgrass; 16 g ai/ha): 50
- Crabgrass, Large plant response rating (large (Lg) crabgrass; 31 g ai/ha): 80
- Crabgrass, Large plant response rating (large (Lg) crabgrass; 62 g ai/ha): 100
- Plant response rating, Crabgrass, Large (large (Lg) crabgrass; 125 g ai/ha): 100
- Plant response rating, Crabgrass, Large (large (Lg) crabgrass; 250 g ai/ha): 100
- Johnsongrass plant response rating (johnsongrass; 16 g ai/ha): 0
- Johnsongrass plant response rating (johnsongrass; 31 g ai/ha): 0
- Johnsongrass plant response rating (johnsongrass; 62 g ai/ha): 40
- Plant response rating, Johnsongrass (johnsongrass; 125 g ai/ha): 95
- Plant response rating, Johnsongrass (johnsongrass; 250 g ai/ha): 98
- Plant response rating, Waterhemp_RES1 [1, 3]: 75
- Plant response rating, Waterhemp_RES1 [1, 4]: 95
- Plant response rating, Waterhemp_RES2 [2, 3]: 80
- Plant response rating, Waterhemp_RES2 [2, 4]: 90
- Plant response rating, Waterhemp (waterhemp; [3]): 80
- Plant response rating, Waterhemp (waterhemp; [4]): 98
- Plant response rating, Panicum, Fall (fall panicum; [3]): 10
- Plant response rating, Panicum, Fall (fall panicum; [4]): 10
- Plant response rating, Sandbur (sandbur; [3]): 0
- Plant response rating, Sandbur (sandbur; [4]): 0
- Plant response rating, Arrowleaf Sida (arrowleaf sida; [3]): 50
- Plant response rating, Arrowleaf Sida (arrowleaf sida; [4]): 75

SMILES: N#Cc1cnn(-c2c(C#N)cccc2Oc2ncc(Cl)cn2)c1 [Compound 200]
- Wheat plant response rating (wheat, winter; 125 g ai/ha): 90
- Wheat plant response rating (wheat, winter; 250 g ai/ha): 95
- Plant response rating, Wheat (wheat, winter; 62 g ai/ha): 65
- Ragweed plant response rating (ragweed; 125 g ai/ha): 100
- Ragweed plant response rating (ragweed; 250 g ai/ha): 98
- Plant response rating, Ragweed (ragweed; 62 g ai/ha): 100
- Soybean plant response rating (soybean; 31 g ai/ha): 25
- Soybean plant response rating (soybean; 62 g ai/ha): 35
- Plant response rating, Soybean (soybean; 125 g ai/ha): 65
- Plant response rating, Soybean (soybean; 250 g ai/ha): 90
- Velvetleaf plant response rating (velvetleaf; 31 g ai/ha): 35
- Velvetleaf plant response rating (velvetleaf; 62 g ai/ha): 80
- Plant response rating, Velvetleaf (velvetleaf; 125 g ai/ha): 100
- Plant response rating, Velvetleaf (velvetleaf; 250 g ai/ha): 100
- Crabgrass, Large plant response rating (large (Lg) crabgrass; 16 g ai/ha): 5
- Crabgrass, Large plant response rating (large (Lg) crabgrass; 31 g ai/ha): 35
- Crabgrass, Large plant response rating (large (Lg) crabgrass; 62 g ai/ha): 65
- Plant response rating, Crabgrass, Large (large (Lg) crabgrass; 125 g ai/ha): 80
- Plant response rating, Crabgrass, Large (large (Lg) crabgrass; 250 g ai/ha): 100
- Johnsongrass plant response rating (johnsongrass; 31 g ai/ha): 15
- Johnsongrass plant response rating (johnsongrass; 62 g ai/ha): 25
- Plant response rating, Johnsongrass (johnsongrass; 125 g ai/ha): 30
- Plant response rating, Johnsongrass (johnsongrass; 250 g ai/ha): 75
- Plant response rating, Waterhemp_RES1 [1, 5]: 80
- Plant response rating, Waterhemp_RES1 [1, 3]: 90
- Plant response rating, Waterhemp_RES1 [1, 4]: 100
- Plant response rating, Waterhemp_RES1 [1, 6]: 100
- Plant response rating, Waterhemp_RES1 [1, 7]: 70
- Plant response rating, Waterhemp_RES2 [2, 5]: 90
- Plant response rating, Waterhemp_RES2 [2, 3]: 90
- Plant response rating, Waterhemp_RES2 [2, 4]: 100
- Plant response rating, Waterhemp_RES2 [2, 6]: 100
- Plant response rating, Waterhemp_RES2 [2, 7]: 90
- Plant response rating, Waterhemp (waterhemp; [5]): 90
- Plant response rating, Waterhemp (waterhemp; [3]): 95
- Plant response rating, Waterhemp (waterhemp; [4]): 95
- Plant response rating, Waterhemp (waterhemp; [6]): 100
- Plant response rating, Waterhemp (waterhemp; [7]): 80
- Plant response rating, Panicum, Fall (fall panicum; [5]): 10
- Plant response rating, Panicum, Fall (fall panicum; [3]): 20
- Plant response rating, Panicum, Fall (fall panicum; [4]): 50
- Plant response rating, Panicum, Fall (fall panicum; [6]): 50
- Plant response rating, Panicum, Fall (fall panicum; [7]): 10
- Plant response rating, Sandbur (sandbur; [5]): 0
- Plant response rating, Sandbur (sandbur; [3]): 0
- Plant response rating, Sandbur (sandbur; [4]): 0
- Plant response rating, Sandbur (sandbur; [6]): 10
- Plant response rating, Sandbur (sandbur; [7]): 0
- Plant response rating, Arrowleaf Sida (arrowleaf sida; [5]): 80
- Plant response rating, Arrowleaf Sida (arrowleaf sida; [3]): 80
- Plant response rating, Arrowleaf Sida (arrowleaf sida; [4]): 90
- Plant response rating, Arrowleaf Sida (arrowleaf sida; [6]): 98
- Plant response rating, Arrowleaf Sida (arrowleaf sida; [7]): 60
